Measured values taken from patent publication US11066433B2, “Pentaaza macrocyclic ring complexes possessing oral bioavailability” (Galera Labs, LLC, priority 2015, dated 2021).

Experiment: Oral bioavailability by intraduodenal (id) dosing of minipigs, oil formulations, versus iv parent
Format: in vivo, Gottingen minipig
Settings: for Mini-Pig BioA: id 10 mg/kg, 10% by weight formulation, vs iv 1 mg/kg parent, AUC0-24 h
Description: Compounds were screened for oral bioavailability by injecting the formulated prodrugs directly into the duodenum (intraduodenal or id administration) of the minipig test subjects, thus bypassing the acidic environment of the stomach and thereby eliminating potentially misleading oral bioavailability results that could arise from alteration of the test article drug in the acid environment of the stomach.
The studies were conducted at Xenometrics LLC (Stillwell, Kans.) and the id bioavailability was determined using various axial ligand derivative complexes of GC4419, GC4444, GC4403 and GC4401.
Male Gottingen minipigs (4-5 mo old, 9-12 kg weight) were purchased from Marshall BioResources and housed at Xenometrics. […] The distal end was exteriorized with a reusable accessible hub (see surgical details below). During a recovery period of at least 2 weeks the minipigs were handled daily to acclimate them to the test procedures, i.e., id dosing and blood collections. For each experiment, each minipig received a test article drug dissolved or suspended in an excipient vehicle. […] All dosing experiments were conducted in fasted animals. Food was withdrawn from the minipigs 16 hours before dosing. The minipigs had ad libitum access to water. Dosed minipigs were allowed access to food 6 hour after dosing. The test article was administered at a dose of 10 mg/kg parent drug in 0.1 mL/kg vehicle (e.g., 1.5 mL in 15 kg minipig) as a bolus injection (˜1 minute) via the id cannula. The actual amount of total test article drug administered varied with the formula weight of the prodrug. An equal volume of excipient vehicle was used to flush the cannula after the test article was administered. Approximately 6 hours later, corn oil was used to flush the cannula. After approximately 24 hours post-dose, the catheter was flushed with sterile saline solution and capped. At the following time-points 0.25, 0.5, 1, 2, 4, 8, 24 and 48 hour post-injection, 2 mL blood samples were collected by cranial vena cava puncture (4 mL Sodium heparin Vacutainer, 20 g 1.5″ needle) after the skin surface was wiped with ethanol. The minipig was placed in a sling in a recumbent position without anesthesia for the collection of blood samples. The minipigs were never used more than once per 7 days for experimentation. The blood samples were kept on ice until processed for plasma. Blood samples were centrifuged at 1200×g for ten minutes at 4° C. and plasma samples were transferred to 96 well plate tubes, capped and stored at −20° C. until shipment on dry ice to the analytical laboratory used for measuring the concentration of drug in the plasma. The concentration of the parent manganese pentaaza macrocylic ring complex (independent of the composition of the axial ligands) was measured in plasma using a validated HPLC/MS/MS method that is linear between 50 ng/mL and 20,000 ng/mL.
Maisine 35-1 is chemically defined to be the monoglyceride glyceryl monolinoleate (NF) and was supplied by Gattefosse, SAINT-PRIEST Cedex, France. Labrasol (NF) is chemically defined to be caprylocaproyl polyoxyl-8 glycerides NF and was supplied by Gattefosse, SAINT-PRIEST Cedex, France. Labrafil M 1944 CS is chemically defined to be oleoyl polyoxyl-6 glycerides (NF), and is available from Gattefosse, SAINT-PRIEST Cedex, France. The dosing solutions were all prepared using a four place analytical balance by weighing all components of each formulation so that 10% by weight of each formulation contained the test article drug substance and 90% by weight of the oil used for that formulation.
The bioanalytical method which is used to quantitate the parent Mn(II) macrocyclic ring ligand structure in plasma utilizes HPLC with MS/MS detection and monitors the presence of the monocationic [monoformatoMn(pentaazamacrocycle)]+ complex. […]

Row | Substance | Mini-Pig BioA (base oil Capmul MCM) | Mini-Pig BioA (base oil Labrafil M2125 CS) | Mini-Pig BioA (base oil Peceol) | also measured
1 | Manganese(II)bis-L-phenylalaninato[(4aS,13aS,17aS,21 aS)-1,2,3,4,4a,5,6,12,13,13a,14, 15,16,17,17a,18,19,20,21,21a-Eicosahydro-11,7-nitrilo-7H-dibenzo[b, h][1,4,7,10]tetraazacyclo-heptadecine-κN5, κN13, κN18, κN21, κN22]- [GC4704] | 10% | – | – | –
2 | Manganese(II)bis-L-phenylglycinato[(4aS,13aS,17aS,21 aS)-1,2,3,4,4a,5,6,12,13,13a, 14,15,16,17,17a,18,19,20,21,21a-Eicosahydro-11,7-nitrilo-7H-dibenzo[b,h][1,4,7,10]tetraazacyclo-heptadecine-κN5, κN13, κN18, κN21, κN22]- [GC4702] | 43% | 25% | 29% | Mini-Pig BioA (base oil Miglyol 812 N): 42%; oral bioavailability, comparison in words (id dosing of minipigs, various oils): much better absorbed
3 | Manganese(II)bis-racemic-phenylglycinato[(4aR,13aR,17aR,21 aR)-1,2,3,4,4a,5,6,12,13,13a,14,15,16,17,17a,18,19,20,21,21a-Eicosahydro-11,7-nitrilo-7H-dibenzo[b,h][1,4,7,10] tetraazacycloheptadecine-κN5, κN13, κN18, κN21, κN22]- [GC4717] | 26% | – | – | –
4 | Manganese(II)bis-propionato[(4aR,13aR,17aR,21 aR)-1,2,3,4,4a,5,6,12,13,13a,14,15,16,17,17a,18,19,20,21,21a-Eicosahydro-11,7-nitrilo-7H-dibenzo[b,h][1,4,7,10] tetraazacycloheptadecine-κN5, κN13, κN18, κN21, κN22]- [GC4748] | – | 22% | – | –
5 | Manganese(II)bis-propionato[6R-Methyl(4aR,13aR,17aR,21 aR)-1,2,3,4,4a,5,6,12,13,13a,14,15,16,17,17a,18,19,20,21,21a-Eicosahydro-11,7-nitrilo-7H-dibenzo[b,h][1,4,7,10] tetraazacycloheptadecine-κN5, κN13, κN18, κN21, κN22]- [GC4747] | – | 20% | – | –
6 | Manganese(II)bis-racemic-phenylglycinato[2S, 21 S-Dimethyl(4aR,13aR,17aR,21 aR)-1,2,3,4,4a,5,6,12,13,13a,14,15,16,17,17a,18,19,20,21,21a-Eicosahydro-11,7-nitrilo-7H-dibenzo[b,h][1,4,7,10] tetraazacycloheptadecine-κN5, κN13, κN18, κN21, κN22]- [GC4715] | 36% | – | – | –
7 | Manganese(II)bis-racemic-2-phenylpropionato[(4aS,13aS,17aS,21 aS)-1,2,3,4,4a,5,6,12,13,13a,14,15,16,17,17a,18,19,20,21,21a-Eicosahydro-11,7-nitrilo-7H-dibenzo[b,h][1,4,7,10] tetraazacycloheptadecine-κN5, κN13, κN18, κN21, κN22]- [GC4705] | 23% | – | 24% | –
8 | Manganese(II)bis-propionato[(4aS,13aS,17aS,21aS)-1,2,3,4,4a,5,6,12,13,13a,14,15,16,17,17a,18,19,20,21,21a-Eicosahydro-11,7-nitrilo-7H-dibenzo[b,h][1,4,7,10] tetraaza-cycloheptadecine-κN5, κN13, κN18, κN21, κN22]- [GC4711] | 27% | 44% | 29% | Mini-Pig BioA (base oil Labrafil M1944 CS): 23%; Mini-Pig BioA (base oil Maisine 35-1): 29%

More lines, main results first:

Row | Mini-Pig BioA (base oil Capmul MCM) | Mini-Pig BioA (base oil Labrafil M2125 CS) | Mini-Pig BioA (base oil Peceol) | Substance | also measured
9 | – | 21% | 18% | Manganese(II)bis-n-Butyrato[(4aS,13aS,17aS,21aS)-1,2,3,4,4a,5,6,12,13,13a,14,15,16,17,17a,18,19,20,21,21a-Eicosahydro-11,7-nitrilo-7H-dibenzo[b,h][1,4,7,10] tetraazacycloheptadecine-κN5, κN13, κN18, κN21, κN22]- [GC4713] | –
10 | 28% | – | – | Manganese(II)bis-rac-Mandelato[(4aS,13aS,17aS,21aS)-1,2,3,4,4a,5,6,12,13,13a,14,15,16,17,17a,18,19,20,21,21a-Eicosahydro-11,7-nitrilo-7H-dibenzo[b,h][1,4,7,10] tetraazacycloheptadecine-κN5, κN13, κN18, κN21, κN22]- [GC4706] | –
11 | 24% | – | 29% | Manganese(II)bis-Benzoato[(4aS,13aS,17aS,21aS)-1,2,3,4,4a,5,6,12,13,13a,14,15,16,17,17a,18,19,20,21,21a-Eicosahydro-11,7-nitrilo-7H-dibenzo[b,h][1,4,7,10] tetraazacycloheptadecine-κN5, κN13, κN18, κN21, κN22]- [GC4712] | Mini-Pig BioA (base oil Maisine 35-1): 18%
12 | 12% | – | – | Manganese(II)bis-dodecanoato[(4aS,13aS,17aS,21aS)-1,2,3,4,4a,5,6,12,13,13a,14,15,16,17,17a,18,19,20,21,21a-Eicosahydro-11,7-nitrilo-7H-dibenzo[b,h][1,4,7,10] tetraazacycloheptadecine-κN5, κN13, κN18, κN21, κN22]- [GC4708] | –
13 | 17% | 22% | – | Manganese(II)bis-pivaloato[(4aS,13aS,17aS,21aS)-1,2,3,4,4a,5,6,12,13,13a,14,15,16,17,17a,18,19,20,21,21a-Eicosahydro-11,7-nitrilo-7H-dibenzo[b,h][1,4,7,10] tetraazacycloheptadecine-κN5, κN13, κN18, κN21, κN22]- [GC4709] | –
14 | 13% | – | – | Manganese(II)bis-L-valinato[(4aS,13aS,17aS,21aS)-1,2,3,4,4a,5,6,12,13,13a,14,15,16,17,17a,18,19,20,21,21a-Eicosahydro-11,7-nitrilo-7H-dibenzo[b,h][1,4,7,10] tetraazacyclo-heptadecine-κN5, κN13, κN18, κN21, κN22]- [GC4746] | –
15 | 32% | – | – | Manganese(II)bis-phenylacetato[(4aS,13aS,17aS,21aS)-1,2,3,4,4a,5,6,12,13,13a,14,15,16,17,17a,18,19,20,21,21a-Eicosahydro-11,7-nitrilo-7H-dibenzo[b,h][1,4,7,10] tetraazacyclo-heptadecine-κN5, κN13, κN18, κN21, κN22]- [GC4718] | Mini-Pig BioA (base oil Maisine 35-1): 28%
16 | 25% | – | 28% | Manganese(II)bis-phenylglyoxaloto[(4aS,13aS,17aS,21aS)-1,2,3,4,4a,5,6,12,13,13a,14,15,16,17,17a,18,19,20,21,21a-Eicosahydro-11,7-nitrilo-7H-dibenzo[b,h][1,4,7,10]tetraazacyclohepta-decine-κN5, κN13, κN18, κN21, κN22]- [GC4719] | Mini-Pig BioA (base oil Maisine 35-1): 31%
17 | 36% | – | – | Manganese(II)bis-L-Lactato[(4aS,13aS,17aS,21aS)-1,2,3,4,4a,5,6,12,13,13a,14,15,16,17,17a,18,19,20,21,21a-Eicosahydro-11,7-nitrilo-7H-dibenzo[b,h][1,4,7,10] tetraazacycloheptadecine-κN5, κN13, κN18, κN21, κN22]- [GC4714] | –
18 | 13% | 21% | – | Manganese(II)bis-octanoato[(4aS,13aS,17aS,21aS)-1,2,3,4,4a,5,6,12,13,13a,14,15,16,17,17a,18,19,20,21,21a-Eicosahydro-11,7-nitrilo-7H-dibenzo[b,h][1,4,7,10] tetraazacycloheptadecine-κN5, κN13, κN18, κN21, κN22]- [GC4710] | Mini-Pig BioA (base oil Maisine 35-1): 8%
